The test addresses T1, VEGFR-2 (Homo sapiens, UniProt P35968).
T1 construct: gene KDR
As to the kind of experiment: ELISA-based tyrosine kinase assay with VEGFR-2 (Upstate), poly-Glu-Tyr substrate, Mg2+ and ATP. It counts as biochemical.

IC50 data for one compound are collected here from paper PMC3409373, “Ellagic acid, a phenolic compound, exerts anti-angiogenesis effects via VEGFR-2 signaling pathway in breast cancer” (Breast Cancer Research and Treatment, 2012).

T1 sequence (P35968 20-1356): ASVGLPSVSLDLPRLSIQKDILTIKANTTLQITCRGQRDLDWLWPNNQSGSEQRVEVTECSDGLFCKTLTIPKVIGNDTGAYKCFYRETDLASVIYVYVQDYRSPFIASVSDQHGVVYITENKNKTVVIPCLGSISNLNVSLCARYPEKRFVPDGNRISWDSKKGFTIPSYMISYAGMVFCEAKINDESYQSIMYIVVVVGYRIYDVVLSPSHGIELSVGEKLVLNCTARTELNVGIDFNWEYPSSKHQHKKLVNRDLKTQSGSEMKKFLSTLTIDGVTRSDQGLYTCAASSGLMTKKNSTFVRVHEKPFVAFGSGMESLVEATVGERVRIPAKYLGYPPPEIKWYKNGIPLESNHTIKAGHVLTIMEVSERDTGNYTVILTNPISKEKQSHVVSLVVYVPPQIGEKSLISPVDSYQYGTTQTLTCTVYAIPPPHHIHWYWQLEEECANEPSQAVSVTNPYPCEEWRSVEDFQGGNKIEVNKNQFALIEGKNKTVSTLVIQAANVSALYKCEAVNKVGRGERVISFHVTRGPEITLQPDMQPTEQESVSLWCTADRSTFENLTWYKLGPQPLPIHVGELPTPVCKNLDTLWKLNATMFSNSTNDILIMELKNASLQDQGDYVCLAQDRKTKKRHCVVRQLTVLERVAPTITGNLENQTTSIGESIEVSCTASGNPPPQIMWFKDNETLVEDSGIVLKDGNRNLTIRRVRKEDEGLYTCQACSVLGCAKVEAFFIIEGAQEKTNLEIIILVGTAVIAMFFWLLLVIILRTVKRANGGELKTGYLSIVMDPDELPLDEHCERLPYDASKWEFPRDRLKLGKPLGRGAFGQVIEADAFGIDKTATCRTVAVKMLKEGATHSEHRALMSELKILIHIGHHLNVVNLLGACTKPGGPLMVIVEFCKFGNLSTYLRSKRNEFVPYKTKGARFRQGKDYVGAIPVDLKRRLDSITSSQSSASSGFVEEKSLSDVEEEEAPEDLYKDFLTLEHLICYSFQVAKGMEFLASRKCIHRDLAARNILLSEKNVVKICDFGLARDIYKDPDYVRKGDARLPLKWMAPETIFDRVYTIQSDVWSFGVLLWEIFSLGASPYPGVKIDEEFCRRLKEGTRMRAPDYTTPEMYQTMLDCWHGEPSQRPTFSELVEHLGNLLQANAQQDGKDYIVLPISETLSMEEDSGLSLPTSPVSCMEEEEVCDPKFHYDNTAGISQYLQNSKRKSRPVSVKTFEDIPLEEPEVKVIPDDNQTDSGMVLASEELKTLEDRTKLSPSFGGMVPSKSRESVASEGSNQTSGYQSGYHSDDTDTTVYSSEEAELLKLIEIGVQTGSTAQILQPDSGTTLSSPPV

For orientation: IC50 means the point on the concentration scale where inhibition reaches its midpoint. A higher IC50 goes with weaker potency in that assay. `O=c1oc2c(O)c(O)cc3c(=O)oc4c(O)c(O)cc1c4c23` [ellagic acid, 4,4′,5,5′6, 6′-hexahydroxydiphenic acid 2,6,2′6′-dilactone] returned a half-maximal inhibitory concentration (IC50) of approximately 25.8 nM.
